Assay results reported in ChEMBL document CHEMBL3272053, “(exo, exo)-2-Aryltropane-3-carboxylic esters, hypoglycemic agents with accompanying analgesic activity” (J Med Chem, 1978).
Active and inactive are the calls of the source. The calls are words filed in the database; no cut-off is given here.

Legend:
Rattus norvegicus [1] = experiment: Hypoglycemic activity in Sprague-Dawley rat assessed as reduction of blood glucose level at 9 mg/kg, po measured < 90 mins by glucagon-impaired glucose disposal test; assay type: functional, organism-based; set-up: dose 9 mg/kg
Rattus norvegicus [2] = experiment: Hypoglycemic activity in Sprague-Dawley rat assessed as reduction of blood glucose level at 9 mg/kg, po by glucagon-impaired glucose disposal test in presence of microsomal enzyme inhibitor SKF 525-A; assay type: functional, organism-based; set-up: dose 9 mg/kg
Rattus norvegicus [3] = experiment: Narcotic analgesic activity in fasted Sprague-Dawley rat at 35 mg/kg, po measured at 60 mins by D'Amour-Smith tail-flick test relative to control; assay type: functional
Rattus norvegicus [4] = experiment: Narcotic analgesic activity in fasted Sprague-Dawley rat at 35 mg/kg, po measured at 15 mins by D'Amour-Smith tail-flick test relative to control; assay type: functional
Rattus norvegicus [5] = experiment: Narcotic analgesic activity in fasted Sprague-Dawley rat at 35 mg/kg, po measured at 30 mins by D'Amour-Smith tail-flick test relative to control; assay type: functional
Mus musculus [6] = experiment: Toxicity in Swiss-Webster mouse assessed as mortality at 75 mg/kg, sc; assay type: organism-based; set-up: dose 75 mg/kg, route subcutaneous; details: in vivo
Rattus norvegicus [7] = experiment: Hypoglycemic activity in Sprague-Dawley rat assessed as reduction of blood glucose level at 9 mg/kg, po measured within 15 mins by glucagon-impaired glucose disposal test relative to control; assay type: functional; set-up: scale not given: the % may be the effect or the level left
Rattus norvegicus [8] = experiment: Toxicity in Sprague-Dawley rat assessed as convulsion at 35 mg/kg, po; assay type: organism-based; set-up: dose 35 mg/kg, route oral; details: in vivo
Mus musculus [9] = experiment: Analgesic activity in sc dosed Swiss-Webster mouse assessed as reduction of acetylcholine-induced writhing; assay type: functional; details: Mus musculus, Swiss-Webster, sc; read-out: ED50
Rattus norvegicus [10] = experiment: Hypoglycemic activity in glucose loaded Sprague-Dawley rat assessed as reduction of blood glucose level at 100 mg/kg, po measured at 1 hr; assay type: functional, organism-based; set-up: dose 100 mg/kg
Rattus norvegicus [11] = experiment: Hypoglycemic activity in glucose loaded Sprague-Dawley rat assessed as reduction of blood glucose level at 100 mg/kg, po measured at 1.5 to 2 hrs; assay type: functional, organism-based; set-up: dose 100 mg/kg
Rattus norvegicus [12] = experiment: Hypoglycemic activity in glucose loaded Sprague-Dawley rat assessed as reduction of blood glucose level at 100 mg/kg, po after 30 mins relative to control; assay type: functional; set-up: scale not given: the % may be the effect or the level left
Rattus norvegicus [13] = experiment: Hypoglycemic activity in fasted Sprague-Dawley rat assessed as reduction of blood glucose level at 100 mg/kg, po measured at 2 hrs relative to control; assay type: functional; set-up: scale not given: the % may be the effect or the level left
Rattus norvegicus [14] = experiment: Hypoglycemic activity in fasted Sprague-Dawley rat assessed as reduction of blood glucose level at 100 mg/kg, po measured at 0.5 hrs relative to control; assay type: functional; set-up: scale not given: the % may be the effect or the level left
Rattus norvegicus [15] = experiment: Hypoglycemic activity in glucose loaded Sprague-Dawley rat assessed as reduction of blood glucose level at 100 mg/kg, po measured at 1.5 hrs relative to control; assay type: functional; set-up: scale not given: the % may be the effect or the level left
Rattus norvegicus [16] = experiment: Hypoglycemic activity in glucose/glycogen loaded Sprague-Dawley rat assessed as reduction of blood glucose level at 100 mg/kg, po measured at 0.5 hrs relative to control; assay type: functional; set-up: scale not given: the % may be the effect or the level left
Rattus norvegicus [17] = experiment: Hypoglycemic activity in glucose/glycogen loaded Sprague-Dawley rat assessed as reduction of blood glucose level at 100 mg/kg, po measured at 1 hr relative to control; assay type: functional; set-up: scale not given: the % may be the effect or the level left
Rattus norvegicus [18] = experiment: Hypoglycemic activity in fasted Sprague-Dawley rat assessed as reduction of blood glucose level at 100 mg/kg, po measured at 1 hr relative to control; assay type: functional; set-up: scale not given: the % may be the effect or the level left
Rattus norvegicus [19] = experiment: Hypoglycemic activity in glucose loaded Sprague-Dawley rat assessed as reduction of glucose level per 100 mL of blood at 100 mg/kg, po measured at 2 hrs (reference value: 104 +/- 4 mg/100 mL); assay type: functional
Rattus norvegicus [20] = experiment: Hypoglycemic activity in Sprague-Dawley rat assessed as reduction of blood glucose level at 100 mg/kg, po by glucagon-impaired glucose disposal test relative to control; assay type: functional; set-up: scale not given: the % may be the effect or the level left
Rattus norvegicus [21] = experiment: Narcotic analgesic activity in fasted Sprague-Dawley rat at 240 mg/kg, po measured within 15 mins in presence of (exo,endo)-methyl 8-methyl-2-phenyl-8-azabicyclo[3.2.1]octane-3-carboxylate; assay type: functional, organism-based; set-up: dose 240 mg/kg
Rattus norvegicus [22] = experiment: Analgesic activity in po dosed rat assessed as reduction of intraarterial bradykinin-induced pain response; assay type: functional
Rattus norvegicus [23] = experiment: Hypoglycemic activity in glucose/glycogen loaded Sprague-Dawley rat assessed as reduction of glucose level per 100 mL of blood at 100 mg/kg, po measured at 2 hrs (reference value: 110 +/- 10 mg/100 mL); assay type: functional
Rattus norvegicus [24] = experiment: Toxicity in Sprague-Dawley rat at 240 mg/kg, po; assay type: organism-based; set-up: dose 240 mg/kg, route oral; details: in vivo
Mus musculus [25] = experiment: Analgesic activity in po dosed Swiss-Webster mouse assessed as reduction of acetylcholine-induced writhing; assay type: functional
Rattus norvegicus [26] = experiment: Hypoglycemic activity in glucose/glycogen loaded Sprague-Dawley rat assessed as reduction of blood glucose level at 100 mg/kg, po measured at 1.5 hrs relative to control; assay type: functional; set-up: scale not given: the % may be the effect or the level left
[27] = Drug metabolism in glucose loaded Sprague-Dawley rat urine assessed as formation of (7)- (exo,exo)-methyl 2-(thiophen-2-yl)-8-azabicyclo[3.2.1]octane-3-carboxylate hydrochloride at 20 mg, po administered 3 to 6 hrs measured for 24 hrs by TLC/mass spectrographic analysis; assay type: ADME, organism-based; details: in vivo
Rattus norvegicus [28] = experiment: Hypoglycemic activity in glucose loaded Sprague-Dawley rat assessed as reduction of blood glucose level at 100 mg/kg, po measured at 1 hr relative to control; assay type: functional; set-up: scale not given: the % may be the effect or the level left
Rattus norvegicus [29] = experiment: Hypoglycemic activity in Sprague-Dawley rat assessed as reduction of blood glucose level at 100 mg/kg, po by glucagon-impaired glucose disposal test in presence of (exo,endo)-methyl 8-methyl-2-phenyl-8-azabicyclo[3.2.1]octane-3-carboxylate; assay type: functional, organism-based; set-up: dose 100 mg/kg
Rattus norvegicus [30] = experiment: Hypoglycemic activity in Sprague-Dawley rat assessed as reduction of blood glucose level at 100 mg/kg, po by glucagon-impaired glucose disposal test in presence of opioid antagonist nalorphine; assay type: functional, organism-based; set-up: dose 100 mg/kg
Rattus norvegicus [31] = experiment: Hypoglycemic activity in glucose loaded Sprague-Dawley rat assessed as reduction of blood glucose level at 100 mg/kg, po measured at 0.5 hrs relative to control; assay type: functional; set-up: scale not given: the % may be the effect or the level left
Rattus norvegicus [32] = experiment: Narcotic analgesic activity in fasted Sprague-Dawley rat at 240 mg/kg, po measured at 15 mins by D'Amour-Smith tail-flick test relative to control; assay type: functional
Rattus norvegicus [33] = experiment: Hypoglycemic activity in Sprague-Dawley rat assessed as reduction of blood glucose level at 100 mg/kg, po by glucagon-impaired glucose disposal test in presence of microsomal enzyme inhibitor SKF 525-A; assay type: functional, organism-based; set-up: dose 100 mg/kg
Rattus norvegicus [34] = experiment: Hypoglycemic activity in fasted Sprague-Dawley rat assessed as reduction of blood glucose level at 100 mg/kg, po measured at 1.5 hrs relative to control; assay type: functional; set-up: scale not given: the % may be the effect or the level left
Rattus norvegicus [35] = experiment: Narcotic antagonist activity in sc dosed fed Sprague-Dawley rat assessed as concentration required to decrease phenazocine-induced analgesic activity by 50%; assay type: functional
Rattus norvegicus [36] = experiment: Toxicity in Sprague-Dawley rat assessed as tremor at 60 mg/kg, sc; assay type: organism-based; set-up: dose 60 mg/kg, route subcutaneous; details: in vivo
Rattus norvegicus [37] = experiment: Narcotic analgesic activity in fed Sprague-Dawley rat at 60 mg/kg, sc measured at 30 mins by D'Amour-Smith tail-flick test; assay type: functional; details: route subcutaneous
Rattus norvegicus [38] = experiment: Hypoglycemic activity in Sprague-Dawley rat assessed as reduction of blood glucose level at 64 mg/kg, po by glucagon-impaired glucose disposal test relative to control; assay type: functional; set-up: scale not given: the % may be the effect or the level left
Rattus norvegicus [39] = experiment: Toxicity in Sprague-Dawley rat assessed as convulsion at 60 mg/kg, sc; assay type: organism-based; set-up: dose 60 mg/kg, route subcutaneous; details: in vivo
Rattus norvegicus [40] = experiment: Toxicity in Sprague-Dawley rat assessed as hyperactivity at 2.5 mg/kg, sc; assay type: organism-based; set-up: dose 2.5 mg/kg, route subcutaneous; details: in vivo

Question: For `COC(=O)[C@H]1C[C@H]2CC[C@@H]3[C@H]1c1sccc1CN23.Cl`, which Activity (Rattus norvegicus [1]) is on record?
Answer: inactive

Question: What about the Activity (Rattus norvegicus [2]) of the same compound?
Answer: Active

Question: What about the Activity (Rattus norvegicus [3]) of the same compound?
Answer: 12%

Question: What about the Activity (Rattus norvegicus [4]) of the same compound?
Answer: 74%

Question: And the Activity (Rattus norvegicus [5])?
Answer: 14%

Question: And the Activity (Mus musculus [6])?
Answer: Toxic

Question: What about the Activity (Rattus norvegicus [7]) of the same compound?
Answer: 43%

Question: What about the Activity (Rattus norvegicus [8]) of the same compound?
Answer: Toxic

Question: What about the ED50 (Mus musculus [9]) of the same compound?
Answer: 1.5 mg/kg

Question: Which Activity (Rattus norvegicus [10]) does the source give for `COC(=O)[C@H]1C[C@H]2CC[C@@H]3[C@H]1c1cc(O)ccc1CN23` here?
Answer: inactive

Question: What about the Activity (Rattus norvegicus [11]) of the same compound?
Answer: inactive

Question: What about the Activity (Rattus norvegicus [12]) of the same compound?
Answer: 33%

Question: For `CCCCCN1[C@@H]2CC[C@@H]1[C@@H](c1cccs1)[C@@H](C(=O)OC)C2.CS(=O)(=O)O`, which Activity (Rattus norvegicus [13]) is on record?
Answer: 33%

Question: What about the Activity (Rattus norvegicus [14]) of the same compound?
Answer: 42%

Question: What about the Activity (Rattus norvegicus [15]) of the same compound?
Answer: 33%

Question: What about the Activity (Rattus norvegicus [16]) of the same compound?
Answer: 60%

Question: And the Activity (Rattus norvegicus [17])?
Answer: 60%

Question: And the Activity (Rattus norvegicus [18])?
Answer: 41%

Question: And the Activity (Rattus norvegicus [19])?
Answer: 76 mg/kg

Question: And the Activity (Rattus norvegicus [20])?
Answer: 60%

Question: And the Activity (Rattus norvegicus [21])?
Answer: inactive

Question: And the ED50 (Rattus norvegicus [22])?
Answer: 17 mg/kg

Question: What about the Activity (Rattus norvegicus [23]) of the same compound?
Answer: 77 mg/kg

Question: What about the Activity (Rattus norvegicus [24]) of the same compound?
Answer: Non-toxic

Question: And the ED50 (Mus musculus [25])?
Answer: 57 mg/kg

Question: And the Activity (Rattus norvegicus [26])?
Answer: 52%

Question: And the Drug metabolism [27]?
Answer: metabolite_detected

Question: And the Activity (Rattus norvegicus [28])?
Answer: 61%

Question: What about the Activity (Rattus norvegicus [29]) of the same compound?
Answer: Active

Question: What about the Activity (Rattus norvegicus [30]) of the same compound?
Answer: Active

Question: What about the Activity (Rattus norvegicus [31]) of the same compound?
Answer: 67%

Question: What about the Activity (Rattus norvegicus [32]) of the same compound?
Answer: 71%

Question: And the Activity (Rattus norvegicus [33])?
Answer: inactive

Question: What about the Activity (Rattus norvegicus [34]) of the same compound?
Answer: 39%

Question: With `COC(=O)[C@H]1C[C@H]2CC[C@H]([C@H]1c1ccccc1)N2CC1CC1.Cc1ccc(S(=O)(=O)O)cc1` as the compound, how does the Activity (Rattus norvegicus [35]) read?
Answer: 4.7 mg/kg

Question: What about the Activity (Rattus norvegicus [36]) of the same compound?
Answer: Toxic

Question: What about the Activity (Rattus norvegicus [37]) of the same compound?
Answer: <20%

Question: And the Activity (Rattus norvegicus [38])?
Answer: 20%

Question: And the Activity (Rattus norvegicus [39])?
Answer: Toxic

Question: And the ED50 (Mus musculus [9])?
Answer: 16 mg/kg

Question: And the Activity (Rattus norvegicus [40])?
Answer: Toxic
